Measured values: PubChem BioAssay AID248 (DTP/NCI, 2004)
Inconclusive results and toxic doses are left out. Cut-off read from the data, not from the text of the source: active = T/C of 150% or more; inactive = T/C below 125%.

System: L1210 leukemia ip in BDF1 mice, survival T/C
Assay: NCI In Vivo Anticancer Drug Screen. Data for tumor model L1210 Leukemia (intraperitoneal) in B6D2F1 (BDF1) mice
Details: endpoint: mean survival time, higher = longer survival
Method in brief: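 Transplanted-tumor mice were given test agent; controls received vehicle only. Survival readings from the two groups were divided (treated over control).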

[1] = dose: 75.0 mg/kg/injection, schedule: Q01DX001 (ip), vehicle: saline
[2] = dose: 150.0 mg/kg/injection, schedule: Q01DX001 (ip), vehicle: saline
[3] = dose: 100.0 mg/kg/injection, schedule: Q01DX001 (ip), vehicle: saline
[4] = dose: 200.0 mg/kg/injection, schedule: Q01DX001 (ip), vehicle: saline
[5] = dose: 400.0 mg/kg/injection, schedule: Q01DX001 (ip), vehicle: saline
[6] = dose: 100.0 mg/kg/injection, schedule: Q01DX009 (ip), vehicle: saline with Tween-80
[7] = dose: 100.0 mg/kg/injection, schedule: Q04DX003 (ip), vehicle: saline with Tween-80
[8] = dose: 200.0 mg/kg/injection, schedule: Q01DX009 (ip), vehicle: saline with Tween-80
[9] = dose: 200.0 mg/kg/injection, schedule: Q04DX003 (ip), vehicle: saline with Tween-80
[10] = dose: 400.0 mg/kg/injection, schedule: Q04DX003 (ip), vehicle: saline with Tween-80
[11] = dose: 100.0 mg/kg/injection, schedule: Q01DX009 (ip), vehicle: Klucel (hydroxypropylcellulose) (HPC)
[12] = dose: 100.0 mg/kg/injection, schedule: Q04DX003 (ip), vehicle: Klucel (hydroxypropylcellulose) (HPC)
[13] = dose: 200.0 mg/kg/injection, schedule: Q01DX009 (ip), vehicle: Klucel (hydroxypropylcellulose) (HPC)
[14] = dose: 400.0 mg/kg/injection, schedule: Q01DX009 (ip), vehicle: Klucel (hydroxypropylcellulose) (HPC)
[15] = dose: 400.0 mg/kg/injection, schedule: Q04DX003 (ip), vehicle: Klucel (hydroxypropylcellulose) (HPC)
[16] = dose: 200.0 mg/kg/injection, schedule: Q04DX003 (ip), vehicle: Klucel (hydroxypropylcellulose) (HPC)
[17] = dose: 100.0 mg/kg/injection, schedule: Q01DX009 (ip), vehicle: saline
[18] = dose: 100.0 mg/kg/injection, schedule: Q04DX003 (ip), vehicle: saline
[19] = dose: 200.0 mg/kg/injection, schedule: Q04DX003 (ip), vehicle: saline

Measured: T/C

Cc1ccc(S(=O)(=O)Oc2ccc(-c3ccc(Br)cc3)cc2)cc1
inactive: [1] 97 % of control | [2] 105 % of control | dose: 300.0 mg/kg/injection, schedule: Q01DX001 (ip), vehicle: saline 105 % of control

COC(=O)C1=NNCC1C(=O)N1Cc2cc3ccccc3nc2C1 (stereo not drawn)
inactive: dose: 10.0 mg/kg/injection, schedule: Q04DX003 (ip), vehicle: saline 103 % of control | dose: 20.0 mg/kg/injection, schedule: Q04DX003 (ip), vehicle: saline 99 % of control | dose: 40.0 mg/kg/injection, schedule: Q04DX003 (ip), vehicle: saline 103 % of control | dose: 80.0 mg/kg/injection, schedule: Q04DX003 (ip), vehicle: saline 92 % of control | dose: 160.0 mg/kg/injection, schedule: Q04DX003 (ip), vehicle: saline 97 % of control

CCOC(=O)CNN
inactive: dose: 4.0 mg/kg/injection, schedule: Q01DX009 (ip), vehicle: saline 93 % of control | dose: 8.0 mg/kg/injection, schedule: Q01DX009 (ip), vehicle: saline 108 % of control | dose: 16.0 mg/kg/injection, schedule: Q01DX009 (ip), vehicle: saline 103 % of control | dose: 28.0 mg/kg/injection, schedule: Q01DX001 (ip), vehicle: saline 101 % of control | dose: 56.0 mg/kg/injection, schedule: Q01DX001 (ip), vehicle: saline 108 % of control | dose: 112.0 mg/kg/injection, schedule: Q01DX001 (ip), vehicle: saline 114 % of control

OCC(O)C(O)C(O)C1SCCS1 (stereo not drawn)
inactive: [3] 103 % of control | [4] 106 % of control | [5] 104 % of control

Cn1c2ccccc2c(=O)c2c(O)cc3c(c21)C=C(Br)C(C)(C)O3
inactive: dose: 50.0 mg/kg/injection, schedule: Q01DX001 (ip), vehicle: carboxymethylcellulose (CMC) 88 % of control | dose: 100.0 mg/kg/injection, schedule: Q01DX001 (ip), vehicle: carboxymethylcellulose (CMC) 93 % of control | dose: 200.0 mg/kg/injection, schedule: Q01DX001 (ip), vehicle: carboxymethylcellulose (CMC) 98 % of control | dose: 400.0 mg/kg/injection, schedule: Q01DX001 (ip), vehicle: carboxymethylcellulose (CMC) 90 % of control

C[C@]12CCC(=O)C=C1CC[C@@H]1[C@@H]2C(=O)C[C@]2(C)C3=CC(=O)O[C@H]3C[C@@H]12
inactive: dose: 25.0 mg/kg/injection, schedule: Q01DX015 (sc), vehicle: steriod suspending solution 117 % of control | dose: 50.0 mg/kg/injection, schedule: Q01DX015 (sc), vehicle: steriod suspending solution 102 % of control | dose: 100.0 mg/kg/injection, schedule: Q01DX001 (sc), vehicle: steriod suspending solution 94 % of control | dose: 100.0 mg/kg/injection, schedule: Q01DX015 (sc), vehicle: steriod suspending solution 102 % of control | dose: 200.0 mg/kg/injection, schedule: Q01DX001 (sc), vehicle: steriod suspending solution 103 % of control | dose: 200.0 mg/kg/injection, schedule: Q01DX015 (sc), vehicle: steriod suspending solution 91 % of control | dose: 400.0 mg/kg/injection, schedule: Q01DX001 (sc), vehicle: steriod suspending solution 103 % of control | dose: 400.0 mg/kg/injection, schedule: Q01DX015 (sc), vehicle: steriod suspending solution 97 % of control | dose: 600.0 mg/kg/injection, schedule: Q01DX015 (sc), vehicle: steriod suspending solution 95 % of control

COC(=O)c1ccccc1NCCCC(=O)O
inactive: [6] 97 % of control | [7] 103 % of control | [8] 97 % of control | [9] 97 % of control | dose: 400.0 mg/kg/injection, schedule: Q01DX009 (ip), vehicle: saline with Tween-80 102 % of control | [10] 98 % of control

O=[N+]([O-])c1ccc(OCCN2CCCC2)cc1
inactive: [1] 93 % of control | [2] 98 % of control

c1ccc(-c2nnc(-c3ccc4ccc5cccnc5c4n3)nc2-c2ccccc2)cc1
inactive: [7] 93 % of control | [9] 104 % of control | [10] 104 % of control

CCOc1ccc(NC(=O)Nc2cccc3ccccc23)cc1
inactive: [11] 98 % of control | [12] 86 % of control | [13] 94 % of control | [14] 86 % of control | [15] 92 % of control

Cc1c(C/C(=N/O)C(=O)O)[nH]c(=S)[nH]c1=O
inactive: [7] 103 % of control | [9] 96 % of control | [10] 102 % of control

CCc1ccccc1NC(=O)C(Cl)Cl
inactive: dose: 100.0 mg/kg/injection, schedule: Q04DX002 (ip), vehicle: Klucel (hydroxypropylcellulose) (HPC) 100 % of control | dose: 200.0 mg/kg/injection, schedule: Q04DX002 (ip), vehicle: Klucel (hydroxypropylcellulose) (HPC) 103 % of control | dose: 400.0 mg/kg/injection, schedule: Q04DX002 (ip), vehicle: Klucel (hydroxypropylcellulose) (HPC) 100 % of control

Oc1ccccc1C=NC1CCCCC1.Oc1ccccc1C=NC1CCCCC1.[Co+2]
inactive: [12] 100 % of control | [16] 100 % of control

CC1(C)C[N+](C)(Cc2ccccc2)C1
inactive: [7] 101 % of control

O=[N+]([O-])c1ccc(N/N=C/CC(O)CO)c([N+](=O)[O-])c1 (stereo not drawn)
inactive: [17] 89 % of control | [18] 90 % of control | dose: 200.0 mg/kg/injection, schedule: Q01DX009 (ip), vehicle: saline 86 % of control | [19] 90 % of control | dose: 400.0 mg/kg/injection, schedule: Q01DX009 (ip), vehicle: saline 94 % of control | dose: 400.0 mg/kg/injection, schedule: Q04DX003 (ip), vehicle: saline 91 % of control

CCC(=O)OCNC(=O)NCc1ccco1
inactive: dose: 222.0 mg/kg/injection, schedule: Q01DX Z (ip), vehicle: methylcellulose (MC) 103 % of control | dose: 333.0 mg/kg/injection, schedule: Q01DX Z (ip), vehicle: methylcellulose (MC) 105 % of control | dose: 500.0 mg/kg/injection, schedule: Q01DX Z (ip), vehicle: methylcellulose (MC) 94 % of control

O=C1C2CCC(C2)C1Cl (stereo not drawn)
inactive: dose: 62.5 mg/kg/injection, schedule: Q04DX003 (ip), vehicle: saline with Tween-80 95 % of control | [7] 95 % of control | dose: 125.0 mg/kg/injection, schedule: Q04DX003 (ip), vehicle: saline with Tween-80 103 % of control | [9] 97 % of control | dose: 250.0 mg/kg/injection, schedule: Q04DX003 (ip), vehicle: saline with Tween-80 104 % of control | [10] 100 % of control

O=C1C2C(C(=O)N1c1ccc([N+](=O)[O-])cc1)C1c3ccccc3C2C2CCCCN21 (stereo not drawn)
inactive: dose: 50.0 mg/kg/injection, schedule: Q01DX009 (ip), vehicle: saline 95 % of control | dose: 50.0 mg/kg/injection, schedule: Q04DX003 (ip), vehicle: saline 104 % of control | [17] 92 % of control | [18] 97 % of control | [19] 88 % of control

Cc1ccc(C)n1Cc1ccccc1
inactive: dose: 100.0 mg/kg/injection, schedule: Q04DX003 (ip), vehicle: other 98 % of control | dose: 200.0 mg/kg/injection, schedule: Q04DX003 (ip), vehicle: other 98 % of control | dose: 400.0 mg/kg/injection, schedule: Q04DX003 (ip), vehicle: other 101 % of control

COC(=O)c1ccc(Cl)cc1OCC(=O)Nc1ccccc1
inactive: dose: 100.0 mg/kg/injection, schedule: Q01DX001 (ip), vehicle: Klucel (hydroxypropylcellulose) (HPC) 97 % of control | dose: 200.0 mg/kg/injection, schedule: Q01DX001 (ip), vehicle: Klucel (hydroxypropylcellulose) (HPC) 103 % of control | dose: 400.0 mg/kg/injection, schedule: Q01DX001 (ip), vehicle: Klucel (hydroxypropylcellulose) (HPC) 93 % of control

CC1CC(=O)Oc2cc(O)c(O)cc21 (stereo not drawn)
inactive: [3] 101 % of control | [4] 95 % of control | [5] 95 % of control

O=C(CNC(=O)NCc1ccccc1)NNC(=O)Nc1cccc(C(F)(F)F)c1
inactive: dose: 50.0 mg/kg/injection, schedule: Q01DX009 (ip), vehicle: saline with Tween-80 102 % of control | [6] 87 % of control | [8] 91 % of control

Cc1ccc(C(=O)/C(=C/c2ccccc2)c2ccccc2)cc1
inactive: [11] 101 % of control | [12] 96 % of control | [13] 97 % of control | [16] 93 % of control | [14] 88 % of control | [15] 96 % of control
